From ChEMBL document CHEMBL2007661, “Compounds: GSK PKIS; Assays: UNC Frye lab” (2012) come the findings set out here.

The structures appear in SMILES notation. “And” between values parts separate entries of the source, which are not always exact repeats. Identical values can stand only once.

For orientation: inhibition means the relative decrease from the control value, in per cent.

Test [1] concerns the target T1, Inhibitor of nuclear factor kappa-B kinase subunit alpha (Homo sapiens) (UniProt O15111).
T1 sequence (whole entry): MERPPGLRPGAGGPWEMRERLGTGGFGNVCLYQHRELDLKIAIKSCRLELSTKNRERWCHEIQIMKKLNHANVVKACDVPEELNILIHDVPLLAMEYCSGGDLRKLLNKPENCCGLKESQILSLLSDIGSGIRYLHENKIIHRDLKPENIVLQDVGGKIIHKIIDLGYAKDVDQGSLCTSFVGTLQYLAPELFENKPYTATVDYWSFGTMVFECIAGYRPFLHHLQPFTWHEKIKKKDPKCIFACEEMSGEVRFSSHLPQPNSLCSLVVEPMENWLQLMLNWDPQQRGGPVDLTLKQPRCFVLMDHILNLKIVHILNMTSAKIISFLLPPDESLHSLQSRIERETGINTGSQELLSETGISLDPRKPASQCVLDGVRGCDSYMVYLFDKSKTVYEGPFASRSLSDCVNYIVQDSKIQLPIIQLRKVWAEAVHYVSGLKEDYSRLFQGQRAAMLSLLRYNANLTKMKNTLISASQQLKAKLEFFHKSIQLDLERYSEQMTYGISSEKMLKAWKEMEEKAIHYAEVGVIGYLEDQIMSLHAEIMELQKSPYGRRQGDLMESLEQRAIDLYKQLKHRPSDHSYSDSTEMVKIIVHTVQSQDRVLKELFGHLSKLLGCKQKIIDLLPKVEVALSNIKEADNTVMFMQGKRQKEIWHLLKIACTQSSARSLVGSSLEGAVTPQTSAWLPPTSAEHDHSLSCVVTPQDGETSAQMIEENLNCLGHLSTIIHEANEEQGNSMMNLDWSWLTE
As to conditions: at 1 µM.

For test [2], the target named is T2, Serine/threonine-protein kinase TBK1 (Homo sapiens) (UniProt Q9UHD2).
T2 sequence (whole entry): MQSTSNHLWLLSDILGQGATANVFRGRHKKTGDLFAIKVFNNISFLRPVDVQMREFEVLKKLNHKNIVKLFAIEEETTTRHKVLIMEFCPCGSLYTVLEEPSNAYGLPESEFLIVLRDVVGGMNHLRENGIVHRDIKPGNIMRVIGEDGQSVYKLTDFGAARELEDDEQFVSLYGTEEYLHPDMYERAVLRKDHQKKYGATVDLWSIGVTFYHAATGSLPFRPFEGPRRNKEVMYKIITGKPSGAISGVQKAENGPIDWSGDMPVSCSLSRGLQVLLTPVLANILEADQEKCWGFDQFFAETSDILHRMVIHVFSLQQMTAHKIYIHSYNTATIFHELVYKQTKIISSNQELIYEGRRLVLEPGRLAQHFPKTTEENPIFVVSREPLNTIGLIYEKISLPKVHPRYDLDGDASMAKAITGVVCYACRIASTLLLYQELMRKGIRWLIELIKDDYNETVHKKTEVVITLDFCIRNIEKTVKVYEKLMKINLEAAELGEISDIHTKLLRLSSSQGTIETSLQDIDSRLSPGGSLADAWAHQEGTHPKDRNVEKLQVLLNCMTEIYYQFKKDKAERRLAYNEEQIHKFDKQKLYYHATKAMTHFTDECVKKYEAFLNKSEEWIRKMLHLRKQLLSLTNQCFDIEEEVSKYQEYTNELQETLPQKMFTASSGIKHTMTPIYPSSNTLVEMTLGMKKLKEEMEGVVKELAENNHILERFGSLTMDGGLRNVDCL
Conditions: at 1 µM.

Turning to `C[C@@H](Oc1cc(-n2cnc3ccc(OC[C@@H](O)CO)cc32)sc1C(N)=O)c1ccccc1Cl`, the inhibition in test [1] was -3% and -4%; in test [2], 4% and 1%.

For the compound `COc1cc2ncn(-c3cc(O[C@H](C)c4ccccc4Cl)c(C(N)=O)s3)c2cc1OC`, the inhibition is -2% and 4% in test [1]; 2% and 0% in test [2].

Consider `COc1ccc(-c2cc3c(N)ncnc3o2)cc1`, for which the inhibition in test [1] is 2% and 3%; in test [2] it was 1% and 2%.

As for `COc1ccc2ncnc(Nc3ccc(OCc4ccccc4)cc3)c2c1`, the inhibition in test [1] is 2% and 3%; in test [2], 1% and -2%.

On to `CCS(=O)(=O)c1ccc(OC)c(Nc2ncc(-c3cccc(OC)c3)o2)c1`, for which the inhibition in test [1] was 1%; in test [2], 11% and 8%.

`O=C(O[C@H]1CN[C@H](C#Cc2cc3ncnc(Nc4ccc5c(ccn5Cc5cc(F)ccc5F)c4)c3s2)C1)N1CCOCC1`: the inhibition is -1% in test [1]; 11% and 9% in test [2].

As for `CN(C)c1cc2c(Nc3ccc4c(cnn4Cc4ccccc4)c3)ncnc2cn1`, the inhibition in test [1] was 1% and 2%; in test [2], 2% and -3%.

As for `Cc1ccc(NC(=O)c2ccoc2)cc1-c1ccc(C(=O)NCC2CC2)cc1`, the inhibition in test [1] is 5% and 4%; in test [2], 1% and 2%.

With `CS(=O)(=O)CCNCc1nc(-c2ccc3ncnc(Nc4ccc(F)c(Cl)c4)c3c2)cs1`, the inhibition was 2% in test [1]; 1% and -2% in test [2].

Take `CN(C)CCOc1ccc(-c2nc(-c3ccncc3)c(-c3ccc4c(c3)CC/C4=N\O)[nH]2)cc1`: the inhibition in test [1] was 2% and -6%; in test [2], -3% and -1%.

For `CCc1nn2ncccc2c1-c1ccnc(NC2CC2)n1`, the inhibition in test [1] is 0%; in test [2], 0% and -2%.

Regarding `O=C1Nc2ccc(I)cc2C1=Cc1cc(Br)c(O)c(Br)c1`, the inhibition in test [1] was 10% and 11%; in test [2], 3%.

As for `NC(=O)c1cccc(Nc2nccc(Nc3cccc4[nH]ncc34)n2)c1`, the inhibition in test [1] is -5%; in test [2] it was 45% and 44%.

As to `CS(=O)(=O)Nc1ccc(-c2ccc3c(NC(=O)C4CC4)n[nH]c3c2)cc1`, the inhibition is 5% and 3% in test [1]; 3% and 5% in test [2].

Take `Cc1ccc(C(=O)NC2CC2)cc1-c1ccc2[nH]ncc2c1`: the inhibition in test [1] was 0%; in test [2], 0% and 2%.

With `CN(C)c1cc2c(Nc3ccc4nc(Cc5ccccc5)[nH]c4c3)ncnc2cn1`, the inhibition in test [1] was 2% and 1%; in test [2], 2% and 6%.

`FC(F)(F)c1cccc(-c2nn3ncccc3c2-c2ccnc(Nc3ccc4c(c3)OCCO4)n2)c1`: the inhibition in test [1] was 1% and 2%; in test [2], 3% and 1%.

On to `O=C1Nc2ccccc2/C1=C/Nc1ccc(-n2cncn2)cc1`, for which the inhibition in test [1] was 4% and 3%; in test [2] it was 23% and 27%.

For `O=C(Nc1n[nH]c2nc(-c3ccc(O)cc3)c(Br)cc12)C1CC1`, the inhibition in test [1] is 2% and 14%; in test [2], 37% and 33%.

As to `CCn1c(-c2nonc2N)nc2c(C#CC(C)(C)O)nc(OC[C@H](N)c3ccccc3)cc21`, the inhibition is 10% and 11% in test [1]; 8% and 11% in test [2].

Turning to `C/C(Nc1ccc(S(N)(=O)=O)cc1)=C1/C(=O)Nc2ccccc21`, the inhibition is 2% and 1% in test [1]; 11% and 14% in test [2].

For `CCNC(=O)O[C@H]1CN[C@H](C#Cc2cc3ncnc(Nc4ccc(OCc5cccc(F)c5)c(Cl)c4)c3s2)C1`, the inhibition in test [1] was 4% and 5%; in test [2], 0% and 3%.

With `NS(=O)(=O)c1cccc(N/C=C2\C(=O)Nc3ccccc32)c1`, the inhibition in test [1] was 1% and 2%; in test [2], 31% and 38%.

Take `Fc1ccc(-c2cc(-c3c[nH]nc3-c3ccccn3)ccn2)cc1`: the inhibition in test [1] was 6%; in test [2], -4% and -3%.

With `CS(=O)(=O)CCNCc1coc(-c2ccc3ncnc(Nc4ccc(OCc5ccccc5)cc4)c3c2)c1`, the inhibition in test [1] is 2% and -8%; in test [2], -1%.

Regarding `CCOc1nccc2c1nc(-c1nonc1N)n2CC`, the inhibition in test [1] is 15% and 18%; in test [2], -2% and 0%.

With `N#Cc1c(NC(=O)CN2CCOCC2)sc2c1CCCC2`, the inhibition in test [1] is 0% and 1%; in test [2], -6%.

Regarding `CN(C)c1ccc2c(c1)/C(=C/Nc1ccc(S(N)(=O)=O)cc1)C(=O)N2`, the inhibition in test [1] is 0% and -1%; in test [2], 76% and 74%.

On to `Cc1ccc2c(-c3ccnc(Nc4ccc5c(c4)OCCO5)n3)c(-c3ccc(C(F)(F)F)cc3)nn2n1`, for which the inhibition in test [1] was 9% and 1%; in test [2], -5% and 1%.
